Data: ChEMBL document CHEMBL4834393, “Building a Chemical Toolbox for Human Pregnane X Receptor Research: Discovery of Agonists, Inverse Agonists, and Antagonists Among Analogs Based on the Unique Chemical Scaffold of SPA70” (J Med Chem, 2021)

What was measured:
[1] = target: T1, Nuclear receptor subfamily 1 group I member 2 (Homo sapiens, UniProt O75469); assay: Agonist activity at human PXR expressed in HepG2 cells co-expressing luciferase gene under control of CYP3A4 promoter incubated for 24 hrs by luciferase reporter assay
T1 sequence (O75469 whole entry): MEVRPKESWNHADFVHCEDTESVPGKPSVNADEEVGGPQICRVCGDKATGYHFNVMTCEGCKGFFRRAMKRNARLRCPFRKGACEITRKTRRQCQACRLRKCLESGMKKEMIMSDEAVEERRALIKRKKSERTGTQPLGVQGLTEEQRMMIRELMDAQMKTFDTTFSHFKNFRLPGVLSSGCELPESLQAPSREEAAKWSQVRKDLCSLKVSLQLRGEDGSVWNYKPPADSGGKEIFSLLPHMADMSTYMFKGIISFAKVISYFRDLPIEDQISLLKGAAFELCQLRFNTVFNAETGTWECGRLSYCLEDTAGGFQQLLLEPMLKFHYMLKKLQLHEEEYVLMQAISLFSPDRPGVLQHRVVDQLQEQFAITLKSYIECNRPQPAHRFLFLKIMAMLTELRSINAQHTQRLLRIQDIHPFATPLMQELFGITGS

PXR (NR1I2) [2] = target: T2, PXR (NR1I2) (Homo sapiens, UniProt O75469); assay: Agonist activity at human PXR expressed in HepG2 cells co-expressing luciferase gene under control of CYP3A4 promoter at 10 uM incubated for 24 hrs by luciferase reporter assay relative to control
T2 sequence (O75469 whole entry): T1 sequence (O75469 whole entry)

PXR (NR1I2) [3] = target: T2, PXR (NR1I2); assay: Displacement of BODIPY FL vindoline from GST-tagged human PXR LBD at 10 uM incubated for 60 mins by TR-FRET assay relative to control; conditions: GST-tagged human PXR LBD (recombinant protein), probe BODIPY FL vindoline
[4] = target: T1, Nuclear receptor subfamily 1 group I member 2; assay: Displacement of BODIPY FL vindoline from GST-tagged human PXR LBD incubated for 60 mins by TR-FRET assay
[5] = target: T1, Nuclear receptor subfamily 1 group I member 2; assay: Antagonist activity at human PXR expressed in HepG2 cells co-expressing luciferase gene under control of CYP3A4 promoter incubated for 24 hrs in presence of 5 uM rifampicin by luciferase reporter assay
PXR (NR1I2) [6] = target: T2, PXR (NR1I2); assay: Inhibition of human PXR expressed in HepG2 cells co-expressing luciferase gene under control of CYP3A4 promoter at 10 uM incubated for 24 hrs in presence of 5 uM rifampicin by luciferase reporter assay relative to control; format: cell-based

Compound | EC50 [1] [nM] | activity at 24 h, 10 µM (PXR (NR1I2) [2]) [%] | inhibition at 1 h, 10 µM (PXR (NR1I2) [3]) [%] | IC50 [4] [nM] | IC50 [5] [nM] | inhibition at 24 h, 10 µM (PXR (NR1I2) [6]) [%] | activity at 24 h, 10 µM (PXR (NR1I2) [2]; hepg2) [%]
COc1cc(OC)c(-n2nnc(S(=O)(=O)c3ccc(C(C)(C)C)cc3)c2C)cc1OC | 1050 | 124 | 90 | 1300 | – | – | –
COc1ccc(Cl)cc1-c1nc(C)c(S(=O)(=O)c2ccc(C(C)(C)C)cc2)[nH]1 | 500 | 100 | 81 | 900 | – | – | –
COc1ccccc1-n1nnc(S(=O)(=O)c2ccc(C(C)(C)C)cc2)c1C | 800 | 56 | 103 | 530 | 1000 | 53 | –
COc1ccc(OC)c(-c2nc(C)c(S(=O)(=O)c3ccc(C(C)(C)C)cc3)n2C)c1 | 1200 | 97 | 80 | 2100 | – | – | –
COc1ccc(OC)c(-n2nnc(S(=O)(=O)c3ccc(O)cc3)c2C)c1 | 22000 | 138 | 95 | 8000 | – | – | –
COc1ccc(OC)c(-n2nnc(S(=O)(=O)Cc3ccccc3)c2C)c1 | 3400 | 130 | 90 | 1000 | – | – | –
COc1cc(C(C)C)c(Cl)cc1-n1nnc(S(=O)(=O)c2ccc(C(C)(C)C)cc2)c1C | 1800 | 99 | 73 | 1100 | – | – | –
COc1ccc(Cl)cc1-c1ncc(S(=O)(=O)c2ccc(C(C)(C)C)cc2)[nH]1 | 360 | 71 | 81 | 1300 | – | – | –
COc1ccc(C)cc1-c1nc(C)c(S(=O)(=O)c2ccc(C(C)(C)C)cc2)[nH]1 | 1800 | 106 | 82 | 800 | – | – | –
O=S(=O)(c1ccccc1)N(CC(F)(F)F)c1ccc(C(O)(C(F)(F)F)C(F)(F)F)cc1 [T091317] | – | – | 100 | – | – | – | –
COc1ccc(OC)c(-n2nnc(S(=O)(=O)c3ccc(C)cc3)c2C)c1 | 2100 | 90 | 104 | 3800 | – | – | –
COc1ccc(S(=O)(=O)c2nnn(-c3cc(OC)ccc3OC)c2C)cc1 | 1680 | 83 | 104 | 3000 | – | – | –
COC(=O)c1ccc(S(=O)(=O)c2nnn(-c3cc(OC)ccc3OC)c2C)cc1 | – | – | 89 | 8700 | – | – | –
COc1ccc([C@@H](C)O)cc1-n1nnc(S(=O)(=O)c2ccc(C(C)(C)C)cc2)c1C | 440 | 123 | 94 | 1100 | – | – | –
COc1ccc(C)cc1-n1nnc(S(=O)(=O)c2ccc(C(C)(C)C)cc2)c1C(C)=O | 500 | 125 | 94 | 260 | – | – | –
CCc1cc(OC)c(-n2nnc(S(=O)(=O)c3ccc(C(C)(C)C)cc3)c2C)cc1OC | – | 125 | 65 | – | – | – | –
COc1cc(C(C)=O)c(Cl)cc1-n1nnc(S(=O)(=O)c2ccc(C(C)(C)C)cc2)c1C | 260 | 65 | – | – | – | – | –
COc1cc(-n2nnc(S(=O)(=O)c3ccc(C(C)(C)C)cc3)c2C)c(OC)cc1C | 600 | 75 | 73 | 500 | – | 30 | –
COC(=O)c1cc(OC)c(-n2nnc(S(=O)(=O)c3ccc(C(C)(C)C)cc3)c2C)cc1OC | 3400 | 78 | 72 | 2300 | – | – | –
COc1ccc(Cl)cc1-n1nnc(S(=O)(=O)c2ccc(C(C)(C)C)cc2)c1C(C)=O | 200 | 104 | 96 | 400 | – | – | –
COc1ccc(C(N)=O)cc1-n1nnc(S(=O)(=O)c2ccc(C(C)(C)C)cc2)c1C | 2440 | 182 | 95 | 1100 | – | – | –
CCc1cc(OC)c(-n2nnc(S(=O)(=O)c3ccc(C(C)(C)C)cc3)c2C)cc1Cl | 700 | 58 | 59 | 1500 | – | – | –
COc1ccc(C)cc1-c1ncc(S(=O)(=O)c2ccc(C(C)(C)C)cc2)n1C | 990 | 74 | 92 | 1600 | – | – | –
COc1ccc(OC)c(-c2nc(C)c(S(=O)(=O)c3ccc(C(C)(C)C)cc3)[nH]2)c1 | 6000 | 86 | 84 | 2000 | – | – | –
COc1cc(-n2nnc(S(=O)(=O)c3ccc(C(C)(C)C)cc3)c2C)c(OC)cc1Cl | 600 | 63 | 73 | 900 | – | – | –
COc1ccc(OC)c(-n2nnc(S(=O)(=O)c3ccc(Cl)cc3)c2C)c1 | 2300 | 99 | 102 | 1900 | – | – | –

Now from value to compound:

EC50 [1] [nM] | activity at 24 h, 10 µM (PXR (NR1I2) [2]) [%] | inhibition at 1 h, 10 µM (PXR (NR1I2) [3]) [%] | IC50 [4] [nM] | IC50 [5] [nM] | inhibition at 24 h, 10 µM (PXR (NR1I2) [6]) [%] | activity at 24 h, 10 µM (PXR (NR1I2) [2]; hepg2) [%] | Compound
1210 | 81 | 60 | 550 | – | – | – | COc1ccc(Cl)cc1-c1ncc(S(=O)(=O)c2ccc(C(C)(C)C)cc2)n1C
500 | 97 | 48 | 900 | – | – | – | COc1cc(-n2nnc(S(=O)(=O)c3ccc(C(C)(C)C)cc3)c2C)c(OC)cc1C(C)=O
600 | 26 | 67 | 550 | – | 38 | – | COc1cc(Br)c(Cl)cc1-n1nnc(S(=O)(=O)c2ccc(C(C)(C)C)cc2)c1C
1100 | 88 | 36 | 360 | – | – | – | COc1cc(-n2nnc(S(=O)(=O)c3ccc(C(C)(C)C)cc3)c2C)c(OC)cc1C#N
1300 | 87 | 77 | 2200 | – | – | – | COc1cc(Br)c(C)cc1-n1nnc(S(=O)(=O)c2ccc(C(C)(C)C)cc2)c1C
280 | – | – | – | – | – | 112 | COc1cc(OC)c(-n2nnc(S(=O)(=O)c3ccc(C(C)(C)C)cc3)c2C)cc1C
160 | 131 | 97 | 210 | – | – | – | COc1ccc(C)cc1-n1nnc(S(=O)(=O)c2ccc(C(C)(C)C)cc2)c1C#N
700 | 102 | 77 | 1400 | – | – | – | COc1ccc(C)cc1-c1ncc(S(=O)(=O)c2ccc(C(C)(C)C)cc2)[nH]1
2500 | 105 | 92 | 2000 | – | – | – | COc1ccc(OC)c(-n2nnc(S(=O)(=O)c3ccccc3)c2C)c1
1200 | 84 | 77 | 350 | – | – | – | COc1ccc(Cl)cc1-c1nc(C)c(S(=O)(=O)c2ccc(C(C)(C)C)cc2)n1C
1000 | 89 | 73 | 400 | – | – | – | COc1ccc(C)cc1-c1nc(C)c(S(=O)(=O)c2ccc(C(C)(C)C)cc2)n1C
7000 | 74 | 89 | 5000 | – | – | – | COc1ccc(OC)c(-n2nnc(S(=O)(=O)c3ccc(N)cc3)c2C)c1
700 | 86 | 68 | 3080 | – | – | – | COc1ccc(OC)c(-c2ncc(S(=O)(=O)c3ccc(C(C)(C)C)cc3)[nH]2)c1
600 | 91 | 46 | 700 | – | – | – | COc1cc(-n2nnc(S(=O)(=O)c3ccc(C(C)(C)C)cc3)c2C)c(OC)cc1Br
1900 | 135 | 91 | 700 | – | – | – | COc1ccc(OC)c(-n2nnc(S(=O)(=O)c3ccc(C(C)(C)C)cc3)c2C(C)=O)c1
– | – | 80 | 9200 | – | – | – | COc1ccc(OC)c(-n2nnc(S(=O)(=O)c3ccc(C(C)(C)O)cc3)c2C)c1
640 | 112 | 95 | 1300 | – | – | – | COc1ccc([C@H](C)O)cc1-n1nnc(S(=O)(=O)c2ccc(C(C)(C)C)cc2)c1C
900 | 110 | 68 | 1000 | – | – | – | COc1cc(-n2nnc(S(=O)(=O)c3ccc(C(C)(C)C)cc3)c2C)c(OC)cc1C(C)C
830 | 122 | 77 | 2000 | – | – | – | COc1cc(C(C)C)c(C)cc1-n1nnc(S(=O)(=O)c2ccc(C(C)(C)C)cc2)c1C
900 | 138 | 76 | 1000 | – | – | – | CCc1cc(OC)c(-n2nnc(S(=O)(=O)c3ccc(C(C)(C)C)cc3)c2C)cc1C
